Measured values from patent publication US20260365670A1, “EGFR INHIBITORS AND USES THEREOF” (DIZAL (JIANGSU) PHARMACEUTICAL CO., LTD., priority 2022, published 2026).
Read-outs that look alike come from different tables or passages of the source.

Experiments:
EGFR wild type = molecular target: T1, EGFR wild type (Homo sapiens, UniProt P00533); assay: Inhibition of EGFR wild type biochemical enzymatic activity (HTRF); conditions: EGFR WT, 1 mM ATP, 1 h, room temperature, read-out: IC50 (nM) @WT
T1 construct: purchased Carna Bio
T1 sequence (P00533 25-1210): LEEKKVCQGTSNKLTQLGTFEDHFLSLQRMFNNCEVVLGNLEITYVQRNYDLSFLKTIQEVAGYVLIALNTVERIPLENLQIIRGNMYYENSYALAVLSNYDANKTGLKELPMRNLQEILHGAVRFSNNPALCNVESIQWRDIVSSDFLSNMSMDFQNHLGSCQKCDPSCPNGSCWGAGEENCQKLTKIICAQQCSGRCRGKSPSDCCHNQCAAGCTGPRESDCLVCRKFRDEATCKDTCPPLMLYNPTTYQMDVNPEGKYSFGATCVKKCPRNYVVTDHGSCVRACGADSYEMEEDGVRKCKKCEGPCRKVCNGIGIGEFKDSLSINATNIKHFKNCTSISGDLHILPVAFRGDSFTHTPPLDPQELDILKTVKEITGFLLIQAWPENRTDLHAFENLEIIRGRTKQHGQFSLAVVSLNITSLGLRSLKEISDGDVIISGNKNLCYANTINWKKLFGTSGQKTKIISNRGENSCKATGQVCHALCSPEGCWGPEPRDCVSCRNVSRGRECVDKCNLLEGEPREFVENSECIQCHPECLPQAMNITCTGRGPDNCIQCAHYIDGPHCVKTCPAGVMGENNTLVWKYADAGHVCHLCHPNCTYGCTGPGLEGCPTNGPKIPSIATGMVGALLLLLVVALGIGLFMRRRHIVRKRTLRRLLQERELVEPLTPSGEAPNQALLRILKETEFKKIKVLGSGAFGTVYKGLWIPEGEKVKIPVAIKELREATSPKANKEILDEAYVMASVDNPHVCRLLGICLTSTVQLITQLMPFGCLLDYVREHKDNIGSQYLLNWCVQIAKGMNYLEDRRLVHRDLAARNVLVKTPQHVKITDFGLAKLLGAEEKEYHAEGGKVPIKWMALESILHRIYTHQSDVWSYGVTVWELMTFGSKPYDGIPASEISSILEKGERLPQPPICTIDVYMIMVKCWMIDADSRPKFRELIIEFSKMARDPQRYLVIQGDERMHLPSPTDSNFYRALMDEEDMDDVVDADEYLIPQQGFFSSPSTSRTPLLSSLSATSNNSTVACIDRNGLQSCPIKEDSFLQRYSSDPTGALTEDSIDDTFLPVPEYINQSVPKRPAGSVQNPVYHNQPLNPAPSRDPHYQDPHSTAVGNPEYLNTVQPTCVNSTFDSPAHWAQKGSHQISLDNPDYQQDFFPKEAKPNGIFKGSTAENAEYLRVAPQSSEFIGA
Outline: (§1)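 Read-out is the HTRF 665/615 nm ratio (excitation 320 nm), taken as proportional to kinase activity after a 1 h room-temperature reaction with 1 mM ATP and 1 μM biotinylated TK substrate. IC50 values derive from four-parameter logistic fitting.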

EGFR L858R = molecular target: T2, EGFR L858R (Homo sapiens, UniProt P00533, L858R); assay: Inhibition of EGFR L858R biochemical enzymatic activity (HTRF); conditions: 1 mM ATP, 1 h, room temperature, read-out: IC50 (nM) @L858R
T2 construct: purchased Carna Bio
Outline: as §1

EGFR L858R/T790M = molecular target: T3, EGFR L858R/T790M (Homo sapiens, UniProt P00533, L858R/T790M); assay: Inhibition of EGFR L858R/T790M biochemical enzymatic activity (HTRF); conditions: EGFR L858R-T790M, 1 mM ATP, 1 h, room temperature, read-out: IC50 (nM) @L858R-T790M
T3 construct: purchased Carna Bio
T3 sequence (P00533 25-1210 T790M/L858R): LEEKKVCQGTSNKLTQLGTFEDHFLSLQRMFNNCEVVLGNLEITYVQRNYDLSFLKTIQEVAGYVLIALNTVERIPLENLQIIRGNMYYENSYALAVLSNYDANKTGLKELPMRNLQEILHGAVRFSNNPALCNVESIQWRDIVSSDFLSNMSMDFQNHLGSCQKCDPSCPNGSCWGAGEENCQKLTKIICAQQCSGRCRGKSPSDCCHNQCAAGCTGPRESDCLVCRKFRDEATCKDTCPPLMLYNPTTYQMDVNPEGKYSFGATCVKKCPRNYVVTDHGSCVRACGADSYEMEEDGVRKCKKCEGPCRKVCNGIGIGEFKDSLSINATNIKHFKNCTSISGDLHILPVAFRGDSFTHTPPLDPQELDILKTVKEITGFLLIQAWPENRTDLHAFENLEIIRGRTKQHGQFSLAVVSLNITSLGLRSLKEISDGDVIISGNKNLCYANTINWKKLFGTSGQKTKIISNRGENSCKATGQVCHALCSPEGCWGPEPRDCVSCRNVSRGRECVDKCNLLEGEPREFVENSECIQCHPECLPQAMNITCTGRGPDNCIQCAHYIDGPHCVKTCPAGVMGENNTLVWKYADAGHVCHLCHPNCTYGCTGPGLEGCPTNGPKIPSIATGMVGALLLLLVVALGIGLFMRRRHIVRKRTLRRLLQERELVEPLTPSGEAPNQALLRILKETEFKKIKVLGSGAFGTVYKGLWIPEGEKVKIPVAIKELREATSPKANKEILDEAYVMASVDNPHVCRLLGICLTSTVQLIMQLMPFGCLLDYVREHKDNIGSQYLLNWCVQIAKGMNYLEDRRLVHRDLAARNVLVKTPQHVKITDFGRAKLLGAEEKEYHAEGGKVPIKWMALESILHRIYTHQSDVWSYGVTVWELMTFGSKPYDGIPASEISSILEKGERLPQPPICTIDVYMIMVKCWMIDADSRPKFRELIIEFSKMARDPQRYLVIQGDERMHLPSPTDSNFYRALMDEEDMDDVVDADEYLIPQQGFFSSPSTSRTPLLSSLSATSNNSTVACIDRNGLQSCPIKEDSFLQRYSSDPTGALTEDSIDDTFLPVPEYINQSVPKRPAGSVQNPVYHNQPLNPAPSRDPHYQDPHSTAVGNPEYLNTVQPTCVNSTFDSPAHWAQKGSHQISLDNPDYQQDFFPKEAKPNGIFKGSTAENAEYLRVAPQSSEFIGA
Outline: as §1

EGFR Exon19Del = molecular target: T4, EGFR Exon19Del (Homo sapiens, UniProt P00533, DEL746-750); assay: Inhibition of EGFR Exon19Del biochemical enzymatic activity (HTRF); conditions: EGFR Del19, 1 mM ATP, 1 h, room temperature, read-out: IC50 @Del19
T4 construct: purchased Carna Bio
T4 sequence (P00533 with tags, fused parts or gaps DEL746-750 limits assumed): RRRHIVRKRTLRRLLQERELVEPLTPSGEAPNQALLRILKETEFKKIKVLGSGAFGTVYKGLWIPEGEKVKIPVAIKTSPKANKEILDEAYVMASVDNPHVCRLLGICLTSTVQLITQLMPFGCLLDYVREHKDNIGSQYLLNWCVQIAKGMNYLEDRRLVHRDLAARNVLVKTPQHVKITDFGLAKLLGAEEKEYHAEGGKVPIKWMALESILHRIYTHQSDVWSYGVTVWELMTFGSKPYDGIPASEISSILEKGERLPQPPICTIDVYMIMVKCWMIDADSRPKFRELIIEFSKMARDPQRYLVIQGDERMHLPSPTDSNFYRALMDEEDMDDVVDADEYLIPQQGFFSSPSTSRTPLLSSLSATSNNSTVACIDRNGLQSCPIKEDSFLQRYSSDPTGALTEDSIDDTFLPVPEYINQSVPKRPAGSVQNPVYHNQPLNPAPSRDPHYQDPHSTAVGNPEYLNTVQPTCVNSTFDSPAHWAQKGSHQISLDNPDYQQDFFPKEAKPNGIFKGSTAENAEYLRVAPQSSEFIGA
Outline: as §1

EGFR Exon19Del/T790M = molecular target: T5, EGFR Exon19Del/T790M (Homo sapiens, UniProt P00533, DEL746-750/T790M); assay: Inhibition of EGFR Exon19Del/T790M biochemical enzymatic activity (HTRF); conditions: EGFR Del19-T790M, 1 mM ATP, 1 h, room temperature, read-out: IC50 (nM) @Del19-T790M
T5 construct: purchased Carna Bio
Outline: as §1

EGFR[T790M/C797S/L858R] = molecular target: T6, EGFR[T790M/C797S/L858R] (Homo sapiens, UniProt P00533, C797S/L858R/T790M); assay: Inhibition of EGFR[T790M/C797S/L858R] biochemical enzymatic activity (HTRF); conditions: EGFR T790M-C797S-L858R, 1 mM ATP, 1 h, room temperature, read-out: IC50 (nM) @T790M- C797S - L858R
T6 construct: purchased Carna Bio
Outline: as §1

[1] = molecular target: T7, EGFR[T790M/C797S/d746-750] (Homo sapiens, UniProt P00533, C797S/DEL746-750/T790M); assay: Inhibition of EGFR[T790M/C797S/d746-750] biochemical enzymatic activity (HTRF); conditions: EGFR T790M-C797S-Del19, 1 mM ATP, 1 h, room temperature, read-out: IC50 (nM) @T790M - C797S - Del19
T7 construct: purchased Carna Bio
Outline: as §1

EGFR (d746-750 C797S) = molecular target: T8, EGFR (d746-750 C797S) (Homo sapiens, UniProt P00533, C797S/DEL746-750); assay: Inhibition of EGFR (d746-750 C797S) biochemical enzymatic activity (HTRF); conditions: EGFR Del19-C797S, 1 mM ATP, 1 h, room temperature, read-out: IC50 (nM) @Del19-C797S
T8 construct: purchased signalchem
T8 sequence (P00533 with tags, fused parts or gaps DEL746-750/C797S limits assumed): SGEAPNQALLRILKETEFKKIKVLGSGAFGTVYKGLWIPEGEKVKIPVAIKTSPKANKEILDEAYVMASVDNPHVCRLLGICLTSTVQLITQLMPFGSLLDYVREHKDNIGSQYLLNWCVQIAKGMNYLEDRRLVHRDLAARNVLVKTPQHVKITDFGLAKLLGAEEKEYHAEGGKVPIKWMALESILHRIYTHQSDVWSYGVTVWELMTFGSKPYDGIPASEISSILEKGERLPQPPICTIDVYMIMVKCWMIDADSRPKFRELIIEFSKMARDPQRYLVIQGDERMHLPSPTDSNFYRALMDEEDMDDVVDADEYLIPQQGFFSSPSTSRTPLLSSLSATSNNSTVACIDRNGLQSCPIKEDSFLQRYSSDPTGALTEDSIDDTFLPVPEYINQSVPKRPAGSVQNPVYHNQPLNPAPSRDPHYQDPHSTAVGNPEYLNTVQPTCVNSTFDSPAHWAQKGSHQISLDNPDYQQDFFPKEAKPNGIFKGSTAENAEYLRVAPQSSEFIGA
Outline: as §1

EGFR (C797S L858R) = molecular target: T9, EGFR (C797S L858R) (Homo sapiens, UniProt P00533, C797S/L858R); assay: Inhibition of EGFR (C797S L858R) biochemical enzymatic activity (HTRF); conditions: EGFR L858-C797S, 1 mM ATP, 1 h, room temperature, read-out: IC50 (nM) @L858-C797S
T9 construct: purchased signalchem
T9 sequence (P00533 25-1210 C797S/L858R): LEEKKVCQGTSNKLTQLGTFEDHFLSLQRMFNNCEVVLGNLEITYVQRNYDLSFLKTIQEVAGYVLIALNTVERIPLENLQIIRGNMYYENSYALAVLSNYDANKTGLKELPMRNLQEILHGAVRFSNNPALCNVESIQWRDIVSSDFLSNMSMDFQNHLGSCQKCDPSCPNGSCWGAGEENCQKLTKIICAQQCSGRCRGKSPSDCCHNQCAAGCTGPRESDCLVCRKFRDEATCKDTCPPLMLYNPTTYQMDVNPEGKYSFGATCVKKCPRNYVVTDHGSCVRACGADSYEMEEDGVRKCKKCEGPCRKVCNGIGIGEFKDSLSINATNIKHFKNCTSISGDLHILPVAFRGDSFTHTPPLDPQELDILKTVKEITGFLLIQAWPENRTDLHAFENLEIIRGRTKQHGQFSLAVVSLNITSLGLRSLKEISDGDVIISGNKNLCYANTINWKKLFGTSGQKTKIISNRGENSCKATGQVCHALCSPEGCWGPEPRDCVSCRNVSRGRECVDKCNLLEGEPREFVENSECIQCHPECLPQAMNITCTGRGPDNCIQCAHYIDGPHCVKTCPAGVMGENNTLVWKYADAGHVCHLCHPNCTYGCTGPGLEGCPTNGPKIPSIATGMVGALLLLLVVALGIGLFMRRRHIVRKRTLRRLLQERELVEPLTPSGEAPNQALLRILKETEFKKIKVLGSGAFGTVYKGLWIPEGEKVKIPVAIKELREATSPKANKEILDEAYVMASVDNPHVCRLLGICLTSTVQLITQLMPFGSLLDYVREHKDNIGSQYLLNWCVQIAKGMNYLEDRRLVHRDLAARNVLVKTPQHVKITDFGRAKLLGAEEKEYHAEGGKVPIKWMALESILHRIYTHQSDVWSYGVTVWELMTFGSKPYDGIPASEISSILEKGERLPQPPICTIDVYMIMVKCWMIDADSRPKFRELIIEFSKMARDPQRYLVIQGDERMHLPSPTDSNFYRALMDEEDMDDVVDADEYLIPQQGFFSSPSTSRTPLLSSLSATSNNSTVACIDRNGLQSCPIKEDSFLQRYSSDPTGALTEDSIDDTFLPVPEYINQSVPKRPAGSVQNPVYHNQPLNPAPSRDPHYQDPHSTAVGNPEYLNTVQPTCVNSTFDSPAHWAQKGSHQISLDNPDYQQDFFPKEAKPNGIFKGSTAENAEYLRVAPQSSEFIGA
Outline: as §1

[2] = system: Ba/F3 cells expressing EGFR mutations; assay: Cell proliferation assay, Ba/F3 cells expressing EGFR mutations (CellTiter-Glo, 72 hours); type: cell-based; conditions: CellTiter-Glo
Outline: (§2)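 Cells are exposed to graded compound concentrations after overnight plating, using 500 PC-9 or 5000 Ba/F3 per well. Baseline-subtracted viability is compared with vehicle to give percent proliferation, then GI50.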

PC-9 = assay: Cell proliferation assay, PC-9 cells (CellTiter-Glo, 72 hours); type: cell-based; conditions: PC9 cells, CellTiter-Glo, read-out: PC9 GI50
Outline: as §2

A-431 = assay: Cell proliferation GI50, A-431 cells (Table 6); type: cell-based
[3] = Homo sapiens, A-431, A-431 cells
[4] = BaF3 cells, EGFR DEL19-C797S, read-out: DEL19-C797S/BaF3 GI50
[5] = BaF3 cells, EGFR DEL19-T790-C797S, read-out: DEL19-T790-C797S/BaF3 GI50
[6] = BaF3 cells, EGFR L858R, read-out: L858R/BaF3 GI50
[7] = BaF3 cells, EGFR L858R-C797S, read-out: L858R-C797S/BaF3 GI50
[8] = BaF3 cells, EGFR L858R-T790-C797S, read-out: L858R-T790-C797S/BaF3 GI50
[9] = BaF3 cells, EGFR L858R-T790M, read-out: L858R-T790M/BaF3 GI50
[10] = EGFR DEL19-T790M, read-out: DEL19-T790M GI50

| Compound | IC50 (EGFR wild type) | IC50 (EGFR L858R) | IC50 (EGFR L858R/T790M) | IC50 (EGFR Exon19Del) | IC50 (EGFR Exon19Del/T790M) | IC50 (EGFR[T790M/C797S/L858R]) | IC50 [1] | IC50 (EGFR (d746-750 C797S)) | IC50 (EGFR (C797S L858R)) | GI50 (A-431; [3]) | GI50 [2, 4] | GI50 [2, 5] | GI50 [2, 6] | GI50 [2, 7] | GI50 [2, 8] | GI50 [2, 9] | GI50 [2, 10] | GI50 (PC-9) | GI50 (A-431; A-431 cells) | other results |
| --- | --- | --- | --- | --- | --- | --- | --- | --- | --- | --- | --- | --- | --- | --- | --- | --- | --- | --- | --- | --- |
| Cn1ncc2c1OCCN(C1COC1)CCn1c(nc3ccccc31)NC(=O)c1cc-2c(=O)n(C)c1 [Example A5, 5,26-Dimethyl-10-(oxetan-3-yl)-7-oxa-4,5,10,13,20,22,26-heptaazapentacyclo[22.3.1.0^{2,6}.0^{13,21}.0^{14,19}]octacosa-1(28),2(6),3,14,16,18,20,24-octaene-23,27-dione] | > 5000 nM | > 5000 nM | > 5000 nM | 849 nM | 704 nM | > 5000 nM | 560 nM | 628 nM | > 5000 nM | 2870 nM | – | – | – | – | – | – | – | – | – | GI50 ([2]; Mus musculus, BaF3, 72 h, BaF3 cells, EGFR DEL19-C797S, read-out: DEL19-C797S/BaF3 GI50): 392 nM; GI50 ([2]; Mus musculus, BaF3, 72 h, BaF3 cells, EGFR DEL19-T790-C797S, read-out: DEL19-T790-C797S/BaF3 GI50): 1160 nM; GI50 ([2]; Mus musculus, BaF3, 72 h, BaF3 cells, EGFR L858R, read-out: L858R/BaF3 GI50): 454 nM; GI50 ([2]; Mus musculus, BaF3, 72 h, BaF3 cells, EGFR L858R-C797S, read-out: L858R-C797S/BaF3 GI50): 764 nM; GI50 ([2]; Mus musculus, BaF3, 72 h, BaF3 cells, EGFR L858R-T790-C797S, read-out: L858R-T790-C797S/BaF3 GI50): 859 nM; GI50 ([2]; Mus musculus, BaF3, 72 h, BaF3 cells, EGFR L858R-T790M, read-out: L858R-T790M/BaF3 GI50): 961 nM; GI50 ([2]; Mus musculus, BaF3, 72 h, EGFR DEL19-T790M, read-out: DEL19-T790M GI50): 747 nM; GI50 (PC-9; Homo sapiens, PC-9, 72 h): 482 nM |
| COCCN(C)c1ccc2nc3n(c2c1)C12CCC(CN(CCOc4c(cnn4C)-c4cc(cn(C)c4=O)C(=O)N3)C1)C2 (single isomer, unassigned) [Example A90B] | 825 nM | 54 nM | 10 nM | 6.3 nM | 5.9 nM | 9.3 nM | 4.9 nM | 3.5 nM | 31 nM | – | 0.75 nM | 3.9 nM | 4.6 nM | 8 nM | 15 nM | 14 nM | 3.2 nM | 46 nM | 3160 nM | – |
| CN1CCC2CN(c3ccc4nc5n(c4c3)C34CCC(CN(CCOc6c(cnn6C)-c6cc(cn(C)c6=O)C(=O)N5)C3)C4)CC21 (single isomer, unassigned) [Example A79B] | 126 nM | 27 nM | 12 nM | 6.3 nM | 10 nM | 8.3 nM | 11 nM | 5 nM | 13 nM | 1280 nM | 0.7 nM | 10 nM | 12 nM | 8.5 nM | 14 nM | 37 nM | 13 nM | 23 nM | – | – |
| CN1CCC12CCN(c1ccc3nc4n(c3c1)C13CCC(CN(CCOc5c(cnn5C)-c5cc(cn(C)c5=O)C(=O)N4)C1)C3)CC2 (single isomer, unassigned) [Example A67B] | 2.1 nM | 1.1 nM | 1.1 nM | 0.65 nM | 1.3 nM | 1.1 nM | 1.2 nM | 0.48 nM | 1.2 nM | – | 0.64 nM | 0.92 nM | 0.79 nM | 1.9 nM | 0.84 nM | 3.5 nM | 1 nM | 2.5 nM | 712 nM | – |
| CN1CCC12CCN(c1ccc3nc4n(c3c1)C13CCC(CN(CCOc5c(cnn5C)-c5cc(cn(C)c5=O)C(=O)N4)C1)C3)CC2 (single isomer, unassigned) [Example A67A] | > 5000 nM | > 5000 nM | > 5000 nM | 1020 nM | 4070 nM | > 5000 nM | 1640 nM | 1080 nM | > 5000 nM | – | 133 nM | 374 nM | 530 nM | 382 nM | 258 nM | 1040 nM | 463 nM | 307 nM | 6350 nM | – |
| CN1CCN(C2CN(c3ccc4nc5n(c4c3)C34CCC(CN(CCOc6c(cnn6C)-c6cc(cn(C)c6=O)C(=O)N5)C3)C4)C2)CC1 (single isomer, unassigned) [Example A70B] | 19 nM | 4.7 nM | 1.8 nM | 1.6 nM | 1.9 nM | 2.1 nM | 2.1 nM | 0.91 nM | 3.6 nM | – | 0.66 nM | 1 nM | 0.76 nM | 2.7 nM | 0.91 nM | 5.9 nM | 1.6 nM | 2.7 nM | 744 nM | – |
